Results: paper PMC4900891 (Biochemistry, 2016)
Substitutions are numbered along the chain they refer to. Where “and” joins values, the source holds several entries; their conditions need not be identical. Equal entries are not always repeated. Square brackets hold non-standard residues; d marks the D form. Peptide text beside a SMILES is read from it. pY = N[C@@H](Cc1ccc(OP(=O)(O)O)cc1)C(=O)O

Columns and labels:
SHP2^PTP = settings: substrate DiFMUP, basal (no peptide); 0.00625 nM enzyme, Hepes pH 7.2
SHP2^E76Q [1] = molecular target: T1, SHP2^E76Q (Homo sapiens, UniProt Q06124, E76Q); assay: Basal DiFMUP dephosphorylation kinetics, E76Q; type: biochemical; settings: substrate DiFMUP, basal (no peptide); 0.05 nM enzyme, Hepes pH 7.2
T1 sequence (Q06124 1-525 E76Q): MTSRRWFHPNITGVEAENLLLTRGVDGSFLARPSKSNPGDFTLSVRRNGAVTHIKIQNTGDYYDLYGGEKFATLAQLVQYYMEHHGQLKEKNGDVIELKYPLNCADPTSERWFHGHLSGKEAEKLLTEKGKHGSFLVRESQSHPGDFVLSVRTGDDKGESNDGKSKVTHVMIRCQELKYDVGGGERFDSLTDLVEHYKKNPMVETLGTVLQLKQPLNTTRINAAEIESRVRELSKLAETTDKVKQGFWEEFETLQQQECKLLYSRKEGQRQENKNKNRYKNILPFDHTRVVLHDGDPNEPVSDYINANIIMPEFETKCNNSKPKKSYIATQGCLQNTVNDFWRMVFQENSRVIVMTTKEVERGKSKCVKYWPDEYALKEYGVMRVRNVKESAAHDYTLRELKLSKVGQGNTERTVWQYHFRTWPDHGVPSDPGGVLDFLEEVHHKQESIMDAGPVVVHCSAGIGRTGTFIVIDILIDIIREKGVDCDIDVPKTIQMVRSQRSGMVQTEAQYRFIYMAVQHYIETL

SHP2^WT [2] = molecular target: T2, SHP2^WT (Homo sapiens, UniProt Q06124); settings: substrate DiFMUP, basal (no peptide); 2.5 nM enzyme, Hepes pH 7.2
T2 sequence (Q06124 1-525): T1 sequence (Q06124 1-525 E76Q) with Q76E

SHP2^S502P [3] = molecular target: T3, SHP2^S502P (Homo sapiens, UniProt Q06124, S502P); assay: Basal DiFMUP dephosphorylation kinetics, S502P; type: biochemical; settings: substrate DiFMUP, basal (no peptide); 0.025 nM enzyme, Hepes pH 7.2
T3 sequence (Q06124 1-525 S502P): T1 sequence (Q06124 1-525 E76Q) with Q76E, S502P

SHP2^E76Q [4] = molecular target: T1, SHP2^E76Q; assay: Phosphopeptide activation of SHP2; type: biochemical
SHP2^S502P [5] = molecular target: T3, SHP2^S502P; assay: Phosphopeptide activation of SHP2; type: biochemical
SHP2^WT [6] = molecular target: T2, SHP2^WT; assay: Phosphopeptide activation of SHP2; type: biochemical
SHP2 (both SH2 domains) = settings: cited from earlier work

Cc1cc(=O)oc2c(F)c(OP(=O)(O)O)c(F)cc12 [DiFMUP, 6,8-Difluoro-4-Methylumbelliferyl Phosphate]
kcat/KM (SHP2^PTP): 298000 M⁻¹ s⁻¹ | kcat/KM (SHP2^E76Q [1]): 71000 M⁻¹ s⁻¹ and 71200 M⁻¹ s⁻¹ | kcat/KM (SHP2^WT [2]): 2100 M⁻¹ s⁻¹ | kcat/KM (SHP2^S502P [3]): 77000 M⁻¹ s⁻¹ and 76500 M⁻¹ s⁻¹

CC[C@H](C)[C@H](NC(=O)[C@H](Cc1ccc(OP(=O)(O)O)cc1)NC(=O)[C@H](CC(N)=O)NC(=O)[C@H](CC(C)C)NC(=O)[C@@H](N)CO)C(=O)N[C@@H](CC(=O)O)C(=O)N[C@@H](CC(C)C)C(=O)N[C@@H](CC(=O)O)C(=O)N[C@@H](CC(C)C)C(=O)N[C@H](C(=O)N[C@@H](CCCCN)C(=O)O)C(C)C [PY1172] (H-SLN[pY]IDLDLVK-OH)
EC50 (SHP2^E76Q [4]): 350 nM | EC50 (SHP2^S502P [5]): 830 nM | EC50 (SHP2^WT [6]): 10000 nM

SLNY(p)IDLDLVK-dPEG8-LSTY(p)ASINFQK [PY1172-PEG-PY1222]
sensitivity to bisphosphorylated peptide (SHP2^E76Q [4]; relative to SHP2^WT): greatest sensitivity | sensitivity to bisphosphorylated peptide (SHP2^S502P [5]; relative to SHP2^WT): greatest sensitivity | SH2 domain occupancy and activation (SHP2 (both SH2 domains)): occupies both SH2 domains and induces full activation of the phosphatase | extent of activation (SHP2^WT [6]; double-phosphorylated peptide, low-micromolar concentrations): complete activation
